Source: ChEMBL document CHEMBL6078677, “Discovery and optimization of tetrahydroacridine derivatives as a novel class of antibiotics against multidrug-resistant Gram-positive pathogens by targeting type I signal peptidase and disrupting bacterial membrane” (Eur J Med Chem, 2025)
Values after ≈ are worked out from the molar mass of the structure shown. Active and inactive are the calls of the source. The rule behind the calls is not given here.

Columns and labels:
[1] = Cytotoxicity against human Caco-2 cells assessed as cell viability at 2 times of MIC incubated for 48 hrs by CCK8 assay (reference value: 99.54 %); assay type: toxicity, cell-based; details: read-out: Activity
Salmonella enteritidis = test: Antimicrobial activity against Salmonella enteritis S1 assessed as inhibition of visible growth of bacteria incubated for 20 hrs by broth microdilution method; assay type: functional, Salmonella enterica subsp. enterica serovar Enteritidis; details: Salmonella enterica
Enterococcus faecalis [2] = test: Antimicrobial activity against Enterococcus faecalis J2 harboring erythromycin-resistance rRNA methylase B and oxazolidinone phenicol transferable resistance gene assessed as inhibition of visible growth of bacteria incubated for 20 hrs by broth microdilution method; assay type: functional
[3] = Cytotoxicity against human HEp-2 cells assessed as cell viability at 1 time of MIC incubated for 48 hrs by CCK8 assay (reference value: 100 %); assay type: toxicity, cell-based; details: read-out: Activity
Staphylococcus aureus [4] = test: Drug resistance, ratio of MIC for Staphylococcus aureus ATCC 29213 measured after 28 days to MIC for Staphylococcus aureus ATCC 29213 measured after 20 hrs; assay type: functional
Enterococcus faecalis [5] = test: microbe, parasite or virus in culture; assay type: functional; details: SF23-1, time 20 hrs
Description: Antimicrobial activity against Enterococcus faecalis SF23-1 harboring erythromycin-resistance rRNA methylase B, tetracycline efflux protein L and chloramphenicol-florfenicol resistance methylase assessed as inhibition of visible growth of bacteria incubated for 20 hrs by broth microdilution method

[6] = Hemolytic activity in Kunming mouse erythrocytes assessed as hemolysis at 16 times of MIC measured after 1 hrs by absorbance based assay relative to control; assay type: toxicity, cell-based, Erythrocyte; details: read-out: Activity
Staphylococcus aureus [7] = test: Bactericidal activity against Staphylococcus aureus ATCC 29213 assessed as bacterial eradication at 4 times of MIC measured after 24 hrs by time-kill kinetics assay relative to control; assay type: functional
[8] = Cytotoxicity against human HEp-2 cells assessed as cell viability at 16 times of MIC incubated for 48 hrs by CCK8 assay (reference value: 100 %); assay type: toxicity, cell-based; details: read-out: Activity
Enterococcus faecium [9] = test: Antimicrobial activity against Enterococcus faecium HFY01 assessed as inhibition of visible growth of bacteria incubated for 20 hrs by broth microdilution method; assay type: functional
[10] = Cytotoxicity against human Caco-2 cells assessed as cell viability at 1 time of MIC incubated for 48 hrs by CCK8 assay (reference value: 99.54 %); assay type: toxicity, cell-based; details: read-out: Activity
Enterococcus faecium [11] = test: Antimicrobial activity against Enterococcus faecium QF31 harboring erythromycin resistance rRNA methylase B and chloramphenicol-florfenicol resistance methylase assessed as inhibition of visible growth of bacteria incubated for 20 hrs by broth microdilution method; assay type: functional
[12] = Cytotoxicity against human HEp-2 cells assessed as cell viability at 4 times of MIC incubated for 48 hrs by CCK8 assay (reference value: 100 %); assay type: toxicity, cell-based; details: read-out: Activity
Enterococcus faecalis [13] = test: Antimicrobial activity against Enterococcus faecalis ES01 harboring erythromycin-resistance rRNA methylase B and vanB-type vancomycin-resistance locus assessed as inhibition of visible growth of bacteria incubated for 20 hrs by broth microdilution method; assay type: functional
Staphylococcus aureus [14] = test: Antimicrobial activity against Staphylococcus aureus YZSA-21 harboring erythromycin resistance rRNA methylase C assessed as inhibition of visible growth of bacteria incubated for 20 hrs by broth microdilution method; assay type: functional
Pseudomonas aeruginosa [15] = test: Antimicrobial activity against Pseudomonas aeruginosa PA14 assessed as inhibition of visible growth of bacteria incubated for 20 hrs by broth microdilution method; assay type: functional
Enterococcus faecium [16] = test: Antimicrobial activity against Enterococcus faecium MC38 harboring erythromycin resistance rRNA methylase B and oxazolidinone-phenicol transferable resistance gene assessed as inhibition of visible growth of bacteria incubated for 20 hrs by broth microdilution method; assay type: functional
Staphylococcus aureus [17] = test: microbe, parasite or virus in culture; assay type: functional; details: M147-2, time 20 hrs
Description: Antimicrobial activity against Staphylococcus aureus M147-2 harboring erythromycin resistance rRNA methylase B, tetracycline efflux protein L and chloramphenicol-florfenicol resistance methylase assessed as inhibition of visible growth of bacteria incubated for 20 hrs by broth microdilution method

[18] = Hemolytic activity in Kunming mouse erythrocytes measured after 1 hrs by absorbance based assay; assay type: toxicity, cell-based, Erythrocyte
Streptococcus pyogenes = test: Antimicrobial activity against Streptococcus pyogenes DL02 harboring erythromycin-resistance rRNA methylase B assessed as inhibition of visible growth of bacteria incubated for 20 hrs by broth microdilution method; assay type: functional
[19] = Cytotoxicity against human Caco-2 cells assessed as cell viability at 8 times of MIC incubated for 48 hrs by CCK8 assay (reference value: 99.54 %); assay type: toxicity, cell-based; details: read-out: Activity
Staphylococcus aureus [20] = test: Antimicrobial activity against Staphylococcus aureus ATCC 29213 assessed as inhibition of visible growth of bacteria incubated for 20 hrs by broth microdilution method; assay type: functional
Staphylococcus aureus [21] = test: Antimicrobial activity against Staphylococcus aureus YZSA-15 harboring erythromycin resistance rRNA methylase C and vancomycin resistance locus assessed as inhibition of visible growth of bacteria incubated for 20 hrs by broth microdilution method; assay type: functional
[22] = Hemolytic activity in Kunming mouse erythrocytes assessed as hemolysis at 8 times of MIC measured after 1 hrs by absorbance based assay relative to control; assay type: toxicity, cell-based, Erythrocyte; details: read-out: Activity
Streptococcus suis [23] = test: Antimicrobial activity against Streptococcus suis P1/7 assessed as inhibition of visible growth of bacteria incubated for 20 hrs by broth microdilution method; assay type: functional
[24] = Cytotoxicity against human HEp-2 cells assessed as cell viability at 8 times of MIC incubated for 48 hrs by CCK8 assay (reference value: 100 %); assay type: toxicity, cell-based; details: read-out: Activity
Staphylococcus aureus [25] = test: Antimicrobial activity against Staphylococcus aureus YZSA-24 harboring erythromycin resistance rRNA methylase C and methicillin resistance gene resistance locus assessed as inhibition of visible growth of bacteria incubated for 20 hrs by broth microdilution method; assay type: functional
[26] = Hemolytic activity in Kunming mouse erythrocytes assessed as hemolysis at 4 times of MIC measured after 1 hrs by absorbance based assay relative to control; assay type: toxicity, cell-based, Erythrocyte; details: read-out: Activity
Staphylococcus aureus [27] = test: Bactericidal activity against Staphylococcus aureus ATCC 29213 assessed as decrease in bacterial number measured within 12 hrs by time-kill kinetics assay; assay type: functional, organism-based
Streptococcus suis [28] = test: microbe, parasite or virus in culture; assay type: functional; details: SH0918, time 20 hrs
Description: Antimicrobial activity against Streptococcus suis SH0918 harboring erythromycin-resistance rRNA methylase B, tetracycline efflux protein O and oxazolidinone phenicol transferable resistance gene assessed as inhibition of visible growth of bacteria incubated for 20 hrs by broth microdilution method

Staphylococcus aureus [29] = test: microbe, parasite or virus in culture; assay type: functional; details: M92-1, time 20 hrs
Description: Antimicrobial activity against Staphylococcus aureus M92-1 harboring erythromycin resistance rRNA methylase B, tetracycline efflux protein L and oxazolidinone-phenicol transferable resistance gene assessed as inhibition of visible growth of bacteria incubated for 20 hrs by broth microdilution method

Klebsiella pneumoniae = test: Antimicrobial activity against Klebsiella pneumoniae 9-1 assessed as inhibition of visible growth of bacteria incubated for 20 hrs by broth microdilution method; assay type: functional
[30] = Hemolytic activity in Kunming mouse erythrocytes assessed as hemolysis at 2 times of MIC measured after 1 hrs by absorbance based assay relative to control; assay type: toxicity, cell-based, Erythrocyte; details: read-out: Activity
Staphylococcus aureus [31] = test: Bactericidal activity against Staphylococcus aureus ATCC 29213 assessed as bacterial killing at 8 times of MIC measured within 12 hrs by time-kill kinetics assay; assay type: functional, organism-based
[32] = Cytotoxicity against human Caco-2 cells assessed as cell viability at 4 times of MIC incubated for 48 hrs by CCK8 assay (reference value: 99.54 %); assay type: toxicity, cell-based; details: read-out: Activity
[33] = Cytotoxicity against human Caco-2 cells assessed as cell viability at 16 times of MIC incubated for 48 hrs by CCK8 assay (reference value: 99.54 %); assay type: toxicity, cell-based; details: read-out: Activity
Streptococcus agalactiae = test: Antimicrobial activity against Streptococcus agalactiae DL03 harboring erythromycin-resistance rRNA methylase B assessed as inhibition of visible growth of bacteria incubated for 20 hrs by broth microdilution method; assay type: functional
Pseudomonas aeruginosa [34] = test: Antimicrobial activity against Pseudomonas aeruginosa PA01 assessed as inhibition of visible growth of bacteria incubated for 20 hrs by broth microdilution method; assay type: functional
Acinetobacter baumannii [35] = test: Antimicrobial activity against Acinetobacter baumannii 7979 assessed as inhibition of visible growth of bacteria incubated for 20 hrs by broth microdilution method; assay type: functional
Escherichia coli = test: Antimicrobial activity against Escherichia coli ATCC 25922 assessed as inhibition of visible growth of bacteria incubated for 20 hrs by broth microdilution method; assay type: functional
Enterococcus faecalis [36] = test: Antimicrobial activity against Enterococcus faecalis JH2-2 assessed as inhibition of visible growth of bacteria incubated for 20 hrs by broth microdilution method; assay type: functional
Acinetobacter baumannii [37] = test: Antimicrobial activity against Acinetobacter baumannii AB11 assessed as inhibition of visible growth of bacteria incubated for 20 hrs by broth microdilution method; assay type: functional
[38] = Hemolytic activity in Kunming mouse erythrocytes assessed as hemolysis at 1 time of MIC measured after 1 hrs by absorbance based assay relative to control; assay type: toxicity, cell-based, Erythrocyte; details: read-out: Activity
[39] = Cytotoxicity against human HEp-2 cells assessed as cell viability at 2 times of MIC incubated for 48 hrs by CCK8 assay (reference value: 100 %); assay type: toxicity, cell-based; details: read-out: Activity
Signal peptidase I = Signal peptidase I (Escherichia coli K-12, UniProt P00803); test: Binding affinity to recombinant 6His-tagged Escherichia coli LepB (77 to 324 residues) extracted from Escherichia coli BL21 (DE3) cells assessed as dissociation constant by MST analysis
Sequence of Signal peptidase I (P00803 whole entry, the tested form may be a part): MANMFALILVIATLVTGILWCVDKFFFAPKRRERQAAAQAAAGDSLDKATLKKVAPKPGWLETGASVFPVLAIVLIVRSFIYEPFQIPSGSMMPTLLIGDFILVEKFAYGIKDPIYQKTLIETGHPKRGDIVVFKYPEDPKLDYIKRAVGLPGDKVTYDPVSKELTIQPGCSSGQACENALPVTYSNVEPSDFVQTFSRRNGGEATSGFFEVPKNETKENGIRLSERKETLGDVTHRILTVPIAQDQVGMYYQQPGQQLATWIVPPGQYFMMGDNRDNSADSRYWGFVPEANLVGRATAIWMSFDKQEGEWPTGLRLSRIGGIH

## COc1ccc2nc3c(c(C(=O)O)c2c1)CC(C)C/C3=C\c1cccc(-c2ccc(Cl)c(C(F)(F)F)c2)c1 (racemic)
[1]
  viability at 48 h, 2 times of MIC: 69.8%
Salmonella enteritidis
  MIC: > 128 µg/mL
Enterococcus faecalis [2]
  MIC: 8 µg/mL (≈ 14.9 µM)
[3]
  viability at 48 h, 1 time of MIC: 89.8%
Staphylococcus aureus [4]
  Ratio: 4
Enterococcus faecalis [5]
  MIC: 4 µg/mL (≈ 7.44 µM)
[6]
  hemolysis at 1 h, 16 times of MIC: 63.5%
Staphylococcus aureus [7]
  Activity: 100%
[8]
  viability at 48 h, 16 times of MIC: 2.42%
Enterococcus faecium [9]
  MIC: 4 µg/mL (≈ 7.44 µM)
[10]
  viability at 48 h, 1 time of MIC: 89.6%
Enterococcus faecium [11]
  MIC: 4 µg/mL (≈ 7.44 µM)
[12]
  viability at 48 h, 4 times of MIC: 66%
Enterococcus faecalis [13]
  MIC: 4 µg/mL (≈ 7.44 µM)
Staphylococcus aureus [14]
  MIC: 2 µg/mL (≈ 3.72 µM)
Pseudomonas aeruginosa [15]
  MIC: > 128 µg/mL
Enterococcus faecium [16]
  MIC: 4 µg/mL (≈ 7.44 µM)
Staphylococcus aureus [17]
  MIC: 2 µg/mL (≈ 3.72 µM)
[18]
  HC50 at 1 h: 25.9 µg/mL
Streptococcus pyogenes
  MIC: 16 µg/mL (≈ 29.7 µM)
[19]
  viability at 48 h, 8 times of MIC: 36.6%
Staphylococcus aureus [20]
  MIC: 2 µg/mL (≈ 3.72 µM)
Staphylococcus aureus [21]
  MIC: 2 µg/mL (≈ 3.72 µM)
[22]
  hemolysis at 1 h, 8 times of MIC: 22.3%
Streptococcus suis [23]
  MIC: 8 µg/mL (≈ 14.9 µM)
[24]
  viability at 48 h, 8 times of MIC: 35.5%
Staphylococcus aureus [25]
  MIC: 2 µg/mL (≈ 3.72 µM)
[26]
  hemolysis at 1 h, 4 times of MIC: 1.8%
Staphylococcus aureus [27]
  Activity: Dose-dependent-effect
Streptococcus suis [28]
  MIC: 16 µg/mL (≈ 29.7 µM)
Staphylococcus aureus [29]
  MIC: 2 µg/mL (≈ 3.72 µM)
Klebsiella pneumoniae
  MIC: > 128 µg/mL
[30]
  hemolysis at 1 h, 2 times of MIC: 0%
Staphylococcus aureus [31]
  Activity: Active
[32]
  viability at 48 h, 4 times of MIC: 51.9%
[33]
  viability at 48 h, 16 times of MIC: 5.84%
Streptococcus agalactiae
  MIC: 32 µg/mL (≈ 59.5 µM)
Pseudomonas aeruginosa [34]
  MIC: > 128 µg/mL
Acinetobacter baumannii [35]
  MIC: > 128 µg/mL
Escherichia coli
  MIC: > 128 µg/mL
Enterococcus faecalis [36]
  MIC: 4 µg/mL (≈ 7.44 µM)
Acinetobacter baumannii [37]
  MIC: > 128 µg/mL
[38]
  hemolysis at 1 h, 1 time of MIC: 0%
[39]
  viability at 48 h, 2 times of MIC: 84.8%

## CC1C/C(=C\c2ccc(-c3cccc(Cl)c3)o2)c2nc3ccccc3c(C(=O)O)c2C1 (racemic)
Enterococcus faecalis [5]
  MIC: > 64 µg/mL
Enterococcus faecium [11]
  MIC: 16 µg/mL (≈ 37.2 µM)
Signal peptidase I
  Kd: 42.1 µM
Staphylococcus aureus [20]
  MIC: 8 µg/mL (≈ 18.6 µM)
Streptococcus suis [23]
  MIC: 32 µg/mL (≈ 74.4 µM)
